Data reported in patent US6472391B2, “Nitrogen-containing heterocyclic compounds” (Millennium Pharmaceuticals, Inc., priority 1996, dated 2002).

What was measured:
human β-PDGF receptor = biological target: T1, human β-PDGF receptor (Homo sapiens, UniProt P09619); assay: Inhibitory effect on phosphorylation of PDGF receptor; format: cell-based; settings: CHO cells expressing human β-PDGF receptor
T1 construct: expressed in transfected cells; host or cells: Chinese hamster ovary cells (CHO)
Procedure: Test Example 1 Inhibitory Effect on Phosphorylation of PDGF Receptor
The test was carried out according to the method described in the literature [Dah-Shuhn et al., J. Biol. Chem., 266, 413-418 (1991)], using Chinese hamster ovary cells (CHO) wherein human β-PDGF receptor cDNA was introduced and expressed.

T1 sequence (P09619 33-1106): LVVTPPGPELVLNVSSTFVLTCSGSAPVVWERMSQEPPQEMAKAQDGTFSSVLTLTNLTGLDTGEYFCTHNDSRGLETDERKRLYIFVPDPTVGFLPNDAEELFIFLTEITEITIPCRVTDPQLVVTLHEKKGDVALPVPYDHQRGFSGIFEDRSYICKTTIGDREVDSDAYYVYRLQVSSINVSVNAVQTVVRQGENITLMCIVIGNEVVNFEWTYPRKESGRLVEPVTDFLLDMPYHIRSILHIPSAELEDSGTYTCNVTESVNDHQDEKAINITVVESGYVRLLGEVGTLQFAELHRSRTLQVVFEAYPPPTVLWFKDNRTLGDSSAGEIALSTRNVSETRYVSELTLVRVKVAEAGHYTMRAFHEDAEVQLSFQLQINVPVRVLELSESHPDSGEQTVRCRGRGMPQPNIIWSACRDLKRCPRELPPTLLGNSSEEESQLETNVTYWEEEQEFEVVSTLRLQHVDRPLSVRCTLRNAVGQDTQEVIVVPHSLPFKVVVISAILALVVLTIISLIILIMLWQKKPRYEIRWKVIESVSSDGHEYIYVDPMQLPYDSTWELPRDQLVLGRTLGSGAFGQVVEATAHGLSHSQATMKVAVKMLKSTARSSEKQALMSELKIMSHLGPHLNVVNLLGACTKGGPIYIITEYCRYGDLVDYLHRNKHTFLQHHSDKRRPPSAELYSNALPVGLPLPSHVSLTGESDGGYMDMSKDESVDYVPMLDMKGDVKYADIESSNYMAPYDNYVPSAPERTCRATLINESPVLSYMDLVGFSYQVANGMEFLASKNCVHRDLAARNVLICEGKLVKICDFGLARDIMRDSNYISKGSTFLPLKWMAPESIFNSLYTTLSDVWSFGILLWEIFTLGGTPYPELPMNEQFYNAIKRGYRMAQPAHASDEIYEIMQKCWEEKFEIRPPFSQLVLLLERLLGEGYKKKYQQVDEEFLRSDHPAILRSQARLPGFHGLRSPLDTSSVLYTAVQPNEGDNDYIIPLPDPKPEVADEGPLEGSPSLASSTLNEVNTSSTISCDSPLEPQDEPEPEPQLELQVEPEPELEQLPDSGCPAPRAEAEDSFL

| SMILES | IC50 (human β-PDGF receptor) [nM] | melting point [°C] |
| --- | --- | --- |
| COc1cc2ncnc(N3CCN(C(=S)Nc4ccc5c(c4)CCC5)CC3)c2cc1OC [Compound 9, 4-(6,7-Dimethoxy-4-quinazolinyl)-N-(5-indanyl)-1-piperazinethiocarboxamide] | 670 | 207 to 210 |
| COc1cc2ncnc(N3CCN(C(=O)Nc4ccc(Cl)c(Cl)c4)CC3)c2cc1OC [Compound 54, N-(3,4-Dichlorophenyl)-4-(6,7-dimethoxy-4-quinazolinyl)-1-piperazinecarboxamide] | 710 | 221 to 222 |
| COc1cc2ncnc(N3CCN(C(=S)Nc4ccc(N(C)C)cc4)CC3)c2cc1OC [Compound 71, 4-(6,7-Dimethoxy-4-quinazolinyl)-N-(4-dimethylaminophenyl)-1-piperazinethiocarboxamide] | 940 | 226 to 227 |
| COc1cc2ncnc(N3CCN(C(=S)NCc4cccnc4)CC3)c2cc1OC [Compound 98, 4-(6,7-Dimethoxy-4-quinazolinyl)-N-(3-picolyl)-1-piperazinethiocarboxamide] | 220 | 104 to 106 |
| CCOc1cc2ncnc(N3CCN(C(=O)Nc4ccc([N+](=O)[O-])cc4)CC3)c2cc1OCC [Compound 105, 4-(6,7-Diethoxy-4-quinazolinyl)-N-(4-nitrophenyl)-1-piperazinecarboxamide] | 440 | 120 to 121 |
| COc1cc2ncnc(N3CCN(C(=S)NCCCc4ccccc4)CC3)c2cc1OC [Compound 135, 4-(6,7-Dimethoxy-4-quinazolinyl)-N-(3-phenylpropyl)-1-piperazinethiocarboxamide] | 460 | 147 to 148 |
| COc1cc2ncnc(N3CCN(C(=S)NCc4cccc(Cl)c4)CC3)c2cc1OC [Compound 177, N-(3-Chlorobenzyl)-4-(6,7-dimethoxy-4-quinazolinyl)-1-piperazinethiocarboxamide] | 770 | 117 to 119 |
| COc1cc2ncnc(N3CCN(C(=O)NCc4ccc(Cl)cc4)CC3)c2cc1OC [Compound 178, N-(4-Chlorobenzyl)-4-(6,7-dimethoxy-4-quinazolinyl)-1-piperazinecarboxamide] | 410 | 203 to 204 |
| COc1cc2ncnc(N3CCN(C(=S)NCCc4ccc(Cl)cc4)CC3)c2cc1OC [Compound 180, N-[2-(4-Chlorophenyl)ethyl]-4-(6,7-dimethoxy-4-quinazolinyl)-1-piperazinethiocarboxamide] | 1000 | 106 to 109 |
| COc1cc2ncnc(N3CCN(C(=O)NCc4ccc(OC(F)(F)F)cc4)CC3)c2cc1OC [Compound 203, 4-(6,7-Dimethoxy-4-quinazolinyl)-N-(4-trifluoromethoxybenzyl)-1-piperazinecarboxamide] | 1390 | 176 to 177 |
| S=C(NCc1ccccc1)N1CCN(c2ccnc3ccc(Cl)cc23)CC1 [Compound 400, N-Benzyl-4-(6-chloro-4-quinolyl)-1-piperazinethiocarboxamide] |  | 173 to 174 |
| S=C(NCc1ccc(Cl)cc1)N1CCN(c2ccnc3ccc(Cl)cc23)CC1 [Compound 401, N-(4-Chlorobenzyl)-4-(6-chloro-4-quinolyl)-1-piperazinethiocarboxamide] |  | 89 to 90 |
| FC(F)(F)Oc1ccc2nccc(N3CCN(C(=S)NCc4ccccc4)CC3)c2c1 [Compound 403, N-Benzyl-4-(6-trifluoromethoxy-4-quinolyl)-1-piperazinethiocarboxamide] |  | 70 to 71 |
| S=C(NCc1ccccc1)N1CCN(c2ccnc3cc(Cl)ccc23)CC1 [Compound 405, N-Benzyl-4-(7-chloro-4-quinolyl)-1-piperazinethiocarboxamide] |  | 84 to 86 |
| CCOC(=O)c1cnc2cc(OC)c(OC)cc2c1N1CCN(C(=S)NCc2ccccc2)CC1 [Compound 409, N-Benzyl-4-(6,7-dimethoxy-3-ethoxycarbonyl-4-quinolyl)-1-piperazinethiocarboxamide] |  | 174 to 175 |
| CCOC(=O)c1cnc2cc(OC)c(OC)cc2c1N1CCN(C(=S)NCc2cccnc2)CC1 [Compound 410, 4-(6,7-Dimethoxy-3-ethoxycarbonyl-4-quinolyl)-N-(3-picolyl)-1-piperazinethiocarboxamide] |  | 92 to 94 |
| Cc1ccc2nc(C(F)(F)F)cc(N3CCN(C(=O)Nc4ccc(Oc5ccccc5)cc4)CC3)c2c1[N+](=O)[O-] [Compound 413, 4-(6-Methyl-5-nitro-2-trifluoromethyl-4-quinolyl)-N-(4-phenoxyphenyl)-1-piperazinecarboxamide] |  | 197 to 198 |
| O=C(Nc1ccc(Oc2ccccc2)cc1)N1CCN(c2nnc(Cc3ccccc3)c3ccccc23)CC1 [Compound 418, 4-(4-Benzyl-1-phthalazinyl)-N-(4-phenoxyphenyl)-1-piperazinecarboxamide] |  | 100 to 101 |
| CCn1c(=O)n(CC)c2cc3c(N4CCN(C(=O)Nc5ccc(Oc6ccccc6)cc5)CC4)nnc(Cl)c3cc21 [Compound 421, 4-(5-Chloro-1,3-diethyl-1,3-dihydro-2-oxo-2H-imidazo[4,5-g]phthalazin-8-yl)-N-(4-phenoxyphenyl)-1-piperazinecarboxamide] |  | 172 to 173 |
| O=C(Nc1ccc(Oc2ccccc2)cc1)N1CCN(c2nccc3ccccc23)CC1 [Compound 422, 4-(1-Isoquinolyl)-N-(4-phenoxyphenyl)-1-piperazinecarboxamide] |  | 122 to 123 |
| COc1cc2ccnc(N3CCN(C(=S)NCc4ccccc4)CC3)c2cc1OC [Compound 424, N-Benzyl-4-(6,7-dimethoxy-1-isoquinolyl)-1-piperazinethiocarboxamide] |  | 171 to 172 |
| COc1cc2nncc(N3CCN(C(=S)NCc4cccnc4)CC3)c2cc1OC [Compound 427, 4-(6,7-Dimethoxy-4-cinnolinyl)-N-(3-picolyl)-1-piperazinethiocarboxamide] |  | 181 to 190 |
| COc1cc2ncnc(N3CCCN(C(=S)NCc4ccccc4)CC3)c2cc1OC [Compound 436, N-Benzyl-4-(6,7-dimethoxy-4-quinazolinyl)-1-homopiperazinethiocarboxamide] |  | 86 to 88 |
| COc1cc2ncnc(N3CCN(C(=S)NCC(=O)c4ccccc4)CC3)c2cc1OC [Compound 445, 4-(6,7-Dimethoxy-4-quinazolinyl)-N-phenacyl-1-piperazinethiocarboxamide] |  | 99 to 100 |
| COc1cc2ncnc(N3CCN(C(=S)NCC4(c5ccc(Cl)cc5)CC4)CC3)c2cc1OC [Compound 446, N-[1-(4-Chlorophenyl)cyclopropylmethyl]-4-(6,7-dimethoxy-4-quinazolinyl)-1-piperazinethiocarboxamide] |  | 108 to 111 |

Next, values leading:

| IC50 (human β-PDGF receptor) [nM] | melting point [°C] | SMILES |
| --- | --- | --- |
|  | 163 to 164 | O=C(Nc1ccc(Oc2ccccc2)cc1)N1CCN(c2ccnc3cc(C(F)(F)F)ccc23)CC1 [Compound 404, N-(4-Phenoxyphenyl)-4-(7-trifluoromethyl-4-quinolyl)-1-piperazinecarboxamide] |
|  | 204 to 206 | COc1cc2nccc(N3CCN(C(=O)Nc4ccc(Oc5ccccc5)cc4)CC3)c2cc1OC [Compound 407, 4-(6,7-Dimethoxy-4-quinolyl)-N-(4-phenoxyphenyl)-1-piperazinecarboxamide] |
|  | 163 to 164 | CCOC(=O)c1cnc2cc(OC)c(OC)cc2c1N1CCN(C(=O)Nc2ccc(Oc3ccccc3)cc2)CC1 [Compound 408, 4-(6,7-Dimethoxy-3-ethoxycarbonyl-4-quinolyl)-N-(4-phenoxyphenyl)-1-piperazinecarboxamide] |
|  | 214 to 215 | O=C(Nc1ccc(Oc2ccccc2)cc1)N1CCN(c2ccnc3c(C(F)(F)F)cccc23)CC1 [Compound 411, N-(4-Phenoxyphenyl)-4-(8-trifluoromethyl-4-quinolyl)-1-piperazinecarboxamide] |
|  | 174 to 175 | O=C(Nc1ccc(Oc2ccccc2)cc1)N1CCN(c2ccnc3c(Cl)cccc23)CC1 [Compound 412, 4-(8-Chloro-4-quinolyl)-N-(4-phenoxyphenyl)-1-piperazinecarboxamide] |
|  | 202 to 203 | O=C(Nc1ccc(Oc2ccccc2)cc1)N1CCN(c2nncc3ccccc23)CC1 [Compound 414, N-(4-Phenoxyphenyl)-4-(1-phthalazinyl)-1-piperazinecarboxamide] |
|  | 196 to 197 | O=C(Nc1ccc(Oc2ccccc2)cc1)N1CCN(c2nnc(Cl)c3ccccc23)CC1 [Compound 416, 4-(4-Chloro-1-phthalazinyl)-N-(4-Phenoxyphenyl)-1-piperazinecarboxamide] |
|  | 125 to 128 | CCn1c(=O)n(CC)c2cc3c(N4CCN(C(=O)Nc5ccc(Oc6ccccc6)cc5)CC4)nncc3cc21 [Compound 419, 4-(1,3-Diethyl-1,3-dihydro-2-oxo-2H-imidazo[4,5-g]phthalazin-5-yl)-N-(4-phenoxyphenyl)-1-piperazinecarboxamide] |
|  | 178 to 179 | COc1cc2ccnc(N3CCN(C(=O)Nc4ccc(Oc5ccccc5)cc4)CC3)c2cc1OC [Compound 423, 4-(6,7-Dimethoxy-1-isoquinolyl)-N-(4-phenoxyphenyl)-1-piperazinecarboxamide] |
|  | 165 to 167 | COc1cc2nncc(N3CCN(C(=O)Nc4ccc(Oc5ccccc5)cc4)CC3)c2cc1OC [Compound 426, 4-(6,7-Dimethoxy-4-cinnolinyl)-N-(4-phenoxyphenyl)-1-piperazinecarboxamide] |
|  | 93 to 96 | COc1cc2ncnc(N3CCCN(C(=O)Nc4ccc(Oc5ccccc5)cc4)CC3)c2cc1OC [Compound 435, 4-(6,7-Dimethoxy-4-quinazolinyl)-N-(4-phenoxyphenyl)-1-homopiperazinecarboxamide] |
